From US10562857B2 (AFASCI, Inc., priority 2015, dated 2020)
Like-named read-outs stand apart in the source and are kept apart here.

Target: T1, Cav3.2 channel (Homo sapiens, UniProt O95180)
T1 construct: expressed in transfected cells; host or cells: HEK-293, tetracycline inducible expression system (Invitrogen)
Assay: Whole-cell patch clamp of T-type Cav3.2 channel expressed in HEK293 cells
Assay type: cell-based
Settings: for IC50: Table 1, tested at at least 4 concentrations, read-out: IC50
Procedure: Cav3.1, Cav3.2 or Cav3.3 channels were expressed in human embryonic kidney (HEK)-293 cells using a tetracycline inducible expression system (Invitrogen). Cells were maintained in 25 cm^2 tissue culture flasks at 37° C., 5% CO2, and 100% relative humidity in D-MEM/F12 (Dulbecco's Modified Eagle Medium/Nutrient Mixture F-12; Gibco) supplemented with fetal bovine serum (FBS, 10% v/v), sodium pyruvate (0.5 mM, Gibco), penicillin-streptomycin (100 U/mL, 100 μg/mL) and Geneticin® Selective antibiotic (G418; 0.5 mg/mL). Cells were detached from the flask base using a non-enzymatic cell dissociation solution (Cellstripper, Corning), removed and re-seeded on to poly-D-lysine coated glass coverslips in 35 mm dishes. Cells in dishes were further supplemented with G418 at a final concentration of 1 mg/mL and after 24 hours, expression of Cav3.2 was induced with 1 μg/mL tetracycline. The medium for the HEK-293 cells was composed of D-MEM/F-12 (Dulbecco's Modified Eagle Medium/Nutrient Mixture F-12; Gibco, #11330-032) and 15 mM HEPES buffer, with L-glutamine and pyridoxine hydrochloride. It was supplemented with FBS (Fetal Bovine Serum), P/S (Penicillin/Streptomycin) (Gibco, #15140-122), and sodium pyruvate 100 mM (Gibco, #11360-070). At least 24 hours before the assay, expression of the alpha-2-delta-1 and beta2a subunits of the calcium channel were induced with 1 ug/mL tetracycline.
Whole-cell voltage clamp recordings were performed on rat or mouse DRG neurons within 2 days after acutely dissociation or cultured HEK293 cells expressing T-type channels (encoded by Cav3.1, Cav3.2 or Cav3.3 channels). All experiments were performed at room temperature (around 21° C.). Whole-cell currents were recorded using a MultiClamp 700B amplifier and analyzed offline with pCLAMP10.4 software (Molecular Devices, LLC, Sunnyvale Calif., USA). To record calcium currents in DRG and HEK293 cells, the external solution was composed (in mM) of 115 choline-Cl, 30 TEA-Cl, 2 CaCl2, 10 glucose and 10 HEPES (pH 7.3-7.4 adjusted with TEA-OH; osmolality verified as 295 mOsm/kg). The internal solution was composed (in mM) of 125 CsCl, 10 HEPES (acid), 10 EGTA (ethylene glycol tetraacetic acid), 1 CaCl2, 1 MgCl2, 4 MgATP and 0.3 MgGTP (pH 7.3-7.4 adjusted with CsOH; osmolality verified as 295 mOsm/kg). Since the sodium ions were absent in the external solution, tetrodoctoxin was not needed. Calcium currents were recorded at a holding potential of −100 mV and then depolarized to −30 mV for 100 ms to activate either Cav3.1, Cav3.2, or Cav3.3 expressed in HEK cells. An interpulse interval of 10 seconds allowed the channel recovery from inactivation, and achieved stable current recordings. To record sodium (Na^+) currents in DRG neurons, the external solution used the modified Krebs solution specified above. The internal solution was composed (in mM) of 120 CsF, 10 HEPES, 11 EGTA, 1 CaCl2, 1 MgCl2, 10 TEA-Cl, 4 MgATP and 0.3 MgGTP (pH 7.3-7.4 adjusted with CsOH). […] To record potassium currents in DRG neurons, the external solution used the modified Kreb's solution specified above. The internal solution was composed (in mM) of 65 KCl, 80 KF, 5 KOH, 10 EGTA, 2 MgATP (pH 7.3-7.4 adjusted with KOH). Recording electrodes were fabricated using a P-87 puller (Sutter Instrument Co., Novato, Calif., USA). The tip of resistance was 3-4 MQ in bath and the series resistance was less than 10 MΩ after whole cell configuration. All reagents were purchased from Sigma unless specified otherwise. Test compounds were usually applied via a rapid solution exchange system with 8 fine polyplastic tubings (100 μm, OD) glued in a holder in parallel and located closely to the recorded cells. […]

[1] = HEK293, Table 1 primary screening, 3 μM as indicated in cell, read-out: % inhibition at 3 μM

T1 sequence (O95180 whole entry): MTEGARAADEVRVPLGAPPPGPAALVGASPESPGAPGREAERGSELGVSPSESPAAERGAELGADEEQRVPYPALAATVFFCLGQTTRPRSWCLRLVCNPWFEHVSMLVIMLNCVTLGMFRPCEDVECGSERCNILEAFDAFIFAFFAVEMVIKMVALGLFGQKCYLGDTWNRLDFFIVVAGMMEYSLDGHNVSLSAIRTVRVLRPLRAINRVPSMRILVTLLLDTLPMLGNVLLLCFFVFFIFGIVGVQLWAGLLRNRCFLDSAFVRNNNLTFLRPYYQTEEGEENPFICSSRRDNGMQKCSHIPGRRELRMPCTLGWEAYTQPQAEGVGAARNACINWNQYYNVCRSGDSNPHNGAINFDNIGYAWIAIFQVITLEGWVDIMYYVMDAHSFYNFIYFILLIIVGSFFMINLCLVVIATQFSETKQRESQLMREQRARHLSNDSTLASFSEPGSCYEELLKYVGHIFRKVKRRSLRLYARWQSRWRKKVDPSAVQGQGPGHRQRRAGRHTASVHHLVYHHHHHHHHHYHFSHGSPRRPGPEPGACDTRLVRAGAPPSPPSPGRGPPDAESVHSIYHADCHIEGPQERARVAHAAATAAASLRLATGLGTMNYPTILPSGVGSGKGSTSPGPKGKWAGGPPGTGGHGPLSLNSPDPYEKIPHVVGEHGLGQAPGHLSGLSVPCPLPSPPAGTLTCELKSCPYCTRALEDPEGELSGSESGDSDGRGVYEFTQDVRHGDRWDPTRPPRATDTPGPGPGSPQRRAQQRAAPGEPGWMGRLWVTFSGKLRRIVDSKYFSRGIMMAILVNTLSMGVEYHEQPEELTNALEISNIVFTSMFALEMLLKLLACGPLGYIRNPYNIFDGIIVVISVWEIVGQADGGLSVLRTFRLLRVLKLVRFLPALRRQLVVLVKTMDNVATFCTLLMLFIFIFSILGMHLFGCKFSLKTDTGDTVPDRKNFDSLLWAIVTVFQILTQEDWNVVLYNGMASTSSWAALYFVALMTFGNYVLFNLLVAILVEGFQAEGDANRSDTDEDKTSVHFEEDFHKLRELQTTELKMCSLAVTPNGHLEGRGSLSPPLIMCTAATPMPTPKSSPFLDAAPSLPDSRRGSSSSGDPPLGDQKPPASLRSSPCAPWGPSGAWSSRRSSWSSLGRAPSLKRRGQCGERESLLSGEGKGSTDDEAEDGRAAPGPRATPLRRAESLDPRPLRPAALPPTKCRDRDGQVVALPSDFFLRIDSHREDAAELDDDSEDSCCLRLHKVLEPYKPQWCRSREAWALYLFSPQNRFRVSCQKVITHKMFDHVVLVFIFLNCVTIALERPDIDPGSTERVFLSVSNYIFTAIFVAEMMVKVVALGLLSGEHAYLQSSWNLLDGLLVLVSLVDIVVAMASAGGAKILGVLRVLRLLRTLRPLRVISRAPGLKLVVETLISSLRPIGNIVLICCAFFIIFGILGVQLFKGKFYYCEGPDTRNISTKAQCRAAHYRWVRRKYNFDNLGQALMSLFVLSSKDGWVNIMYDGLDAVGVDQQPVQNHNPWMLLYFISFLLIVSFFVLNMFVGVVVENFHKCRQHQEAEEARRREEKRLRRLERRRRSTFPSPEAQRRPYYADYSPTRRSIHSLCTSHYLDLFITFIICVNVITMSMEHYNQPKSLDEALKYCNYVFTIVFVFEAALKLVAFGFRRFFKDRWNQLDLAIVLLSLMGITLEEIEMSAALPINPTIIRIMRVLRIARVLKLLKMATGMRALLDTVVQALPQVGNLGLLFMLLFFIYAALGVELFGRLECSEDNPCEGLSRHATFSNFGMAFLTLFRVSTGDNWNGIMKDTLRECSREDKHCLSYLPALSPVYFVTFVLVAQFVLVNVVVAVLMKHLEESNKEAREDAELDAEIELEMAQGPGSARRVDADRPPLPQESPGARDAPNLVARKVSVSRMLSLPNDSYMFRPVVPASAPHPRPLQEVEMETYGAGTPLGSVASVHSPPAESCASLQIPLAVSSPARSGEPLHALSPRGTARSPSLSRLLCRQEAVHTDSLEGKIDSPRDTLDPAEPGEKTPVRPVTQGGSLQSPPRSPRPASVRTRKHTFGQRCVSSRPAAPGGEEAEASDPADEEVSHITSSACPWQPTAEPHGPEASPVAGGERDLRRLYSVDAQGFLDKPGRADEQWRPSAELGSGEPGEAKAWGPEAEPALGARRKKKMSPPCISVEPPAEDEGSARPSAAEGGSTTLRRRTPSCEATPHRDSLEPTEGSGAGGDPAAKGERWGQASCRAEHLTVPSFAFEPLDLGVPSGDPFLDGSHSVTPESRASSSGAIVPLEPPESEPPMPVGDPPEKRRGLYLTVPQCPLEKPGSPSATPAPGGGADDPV

IC50 | Compound | other results
0.19 µM | CC(C)(C)NC(=O)CN1CCC2(CC1)C[C@@H]2NC(=O)c1cc(Cl)cc(Cl)c1 (single isomer, unassigned) [Example 56, (S)—N-(6-(2-(tert-Butylamino)-2-oxoethyl)-6-azaspiro[2.5]octan-1-yl)-3,5-dichlorobenzamide or (R)—N-(6-(2-(tert-Butylamino)-2-oxoethyl)-6-azaspiro[2.5]octan-1-yl)-3,5-dichlorobenzamide] | –
0.62 µM | CC(C)(C)NC(=O)CN1CCC2(CC1)C[C@@H]2NC(=O)[C@]12C[C@@]3(F)C[C@](F)(C[C@](F)(C3)C1)C2 (single isomer, unassigned) [Example 131, (3S,5S,7S)—N—((R)-6-(2-(tert-Butylamino)-2-oxoethyl)-6-azaspiro[2.5]octan-1-yl)-3,5,7-trifluoroadamantane-1-carboxamide or (3S,5S,7S)—N—((S)-6-(2-(tert-Butylamino)-2-oxoethyl)-6-azaspiro[2.5]octan-1-yl)-3,5,7-trifluoroadamantane-1-carboxamide] | –
0.2 µM | CC(C)(C)NC(=O)CN1CCC2(CC1)C[C@H]2C(=O)Nc1cc(F)cc(C(F)(F)F)c1 (single isomer, unassigned) [Example 133, (R)-6-(2-(tert-Butylamino)-2-oxoethyl)-N-(3-fluoro-5-(trifluoromethyl)phenyl)-6-azaspiro[2.5]octane-1-carboxamide or (S)-6-(2-(tert-Butylamino)-2-oxoethyl)-N-(3-fluoro-5-(trifluoromethyl)phenyl)-6-azaspiro[2.5]octane-1-carboxamide] | –
0.12 µM | CC(C)(C)C(=O)CN1CCC2(CC1)C[C@H]2NC(=O)c1cc(F)cc(Cl)c1 (single isomer, unassigned) [Example 134, (R)-3-Chloro-N-(6-(3,3-dimethyl-2-oxobutyl)-6-azaspiro[2.5]octan-1-yl)-5-fluorobenzamide or (S)-3-Chloro-N-(6-(3,3-dimethyl-2-oxobutyl)-6-azaspiro[2.5]octan-1-yl)-5-fluorobenzamide] | –
0.21 µM | CC(C)(C)C(O)CN1CCC2(CC1)CC2NC(=O)c1cc(F)cc(Cl)c1 (single isomer, unassigned) [Example 135, 3-Chloro-5-fluoro-N-((1R)-6-(2-hydroxy-3,3-dimethylbutyl)-6-azaspiro[2.5]octan-1-yl)benzamide or 3-Chloro-5-fluoro-N-((1S)-6-(2-hydroxy-3,3-dimethylbutyl)-6-azaspiro [2.5]octan-1-yl) benzamide] | –
0.26 µM | O=C(CN1CCC2(CC1)CC2NC(=O)c1cc(F)cc(Cl)c1)c1ccc(C(F)(F)F)cc1 (single isomer, unassigned) [Example 136, (R)-3-Chloro-5-fluoro-N-(6-(2-oxo-2-(4-(trifluoromethyl)phenyl)ethyl)-6-azaspiro[2.5]octan-1-yl)benzamide or (S)-3-Chloro-5-fluoro-N-(6-(2-oxo-2-(4-(trifluoromethyl)phenyl)ethyl)-6-azaspiro[2.5]octan-1-yl) benzamide] | –
0.07 µM | O=C(N[C@@H]1CC12CCN(CC(O)c1ccc(C(F)(F)F)cc1)CC2)c1cc(F)cc(Cl)c1 (single isomer, unassigned) [Example 137, 3-Chloro-5-fluoro-N-((1R)-6-(2-hydroxy-2-(4-(trifluoromethyl)phenyl)ethyl)-6-azaspiro[2.5]octan-1-yl)benzamide or 3-Chloro-5-fluoro-N-((1S)-6-(2-hydroxy-2-(4-(trifluoromethyl)phenyl)ethyl)-6-azaspiro[2.5]octan-1-yl)benzamide] | –
0.18 µM | O=C(CN1CCC2(CC1)CC2NC(=O)c1cc(F)cc(Cl)c1)c1ccc(F)cc1 (single isomer, unassigned) [Example 138, (R)-3-Chloro-5-fluoro-N-(6-(2-(4-fluorophenyl)-2-oxoethyl)-6-azaspiro[2.5]octan-1-yl)benzamide or (S)-3-Chloro-5-fluoro-N-(6-(2-(4-fluorophenyl)-2-oxoethyl)-6-azaspiro[2.5]octan-1-yl)benzamide] | –
0.09 µM | O=C(NC1CC12CCN(CC(O)c1ccc(F)cc1)CC2)c1cc(F)cc(Cl)c1 (single isomer, unassigned) [Example 139, 3-Chloro-5-fluoro-N-((1R)-6-(2-(4-fluorophenyl)-2-hydroxyethyl)-6-azaspiro[2.5]octan-1-yl)benzamide or 3-Chloro-5-fluoro-N-((1S)-6-(2-(4-fluorophenyl)-2-hydroxyethyl)-6-azaspiro[2.5]octan-1-yl)benzamide] | –
0.52 µM | CC(C)NC(=O)CN1CCC2(CC1)CC2NC(=O)c1cc(F)cc(Cl)c1 (single isomer, unassigned) [Example 140, (R)-3-Chloro-5-fluoro-N-(6-(2-(isopropylamino)-2-oxoethyl)-6-azaspiro[2.5]octan-1-yl)benzamide or (S)-3-Chloro-5-fluoro-N-(6-(2-(isopropylamino)-2-oxoethyl)-6-azaspiro[2.5]octan-1-yl)benzamide] | –
0.23 µM | CC(C)(C)NC(=O)CN1CCC2(CCC2NC(=O)c2cc(Cl)cc(Cl)c2)CC1 (stereo in doubt) [Example 114, (R)—N-(7-(2-(tert-Butylamino)-2-oxoethyl)-7-azaspiro[3.5]nonan-1-yl)-3,5-dichlorobenzamide] | –
– | CC(C)CN1CCC2(CC1)CC2NC(=O)c1ccccc1 (stereo not drawn) [Example 1, N-(6-Isobutyl-6-azaspiro[2.5]octan-1-yl)benzamide] | inhibition at 3 µM (HEK293, read-out: % inhibition at 3 μM): 15.3%
– | CC(C)(C)CCN1CCC2(CC1)CC2NC(=O)c1ccccc1 (stereo not drawn) [Example 2, N-(6-(3,3-Dimethylbutyl)-6-azaspiro[2.5]octan-1-yl)benzamide] | inhibition at 3 µM [1]: 55.3%
– | O=C(NC1CC12CCN(CCc1ccccc1)CC2)c1ccccc1 (stereo not drawn) [Example 3, N-(6-Phenethyl-6-azaspiro[2.5]octan-1-yl)benzamide] | inhibition at 3 µM [1]: 47.7%
– | CC(C)(C)NC(=O)CN1CCC2(CC1)CC2NC(=O)c1ccccc1 (stereo not drawn) [Example 4, N-(6-(2-(tert-Butylamino)-2-oxoethyl)-6-azaspiro[2.5]octan-1-yl)benzamide] | inhibition at 3 µM [1]: 24.7%
– | O=C(NC1CC12CCN(Cc1ccccc1)CC2)c1ccccc1 (stereo not drawn) [Example 5, N-(6-Benzyl-6-azaspiro[2.5]octan-1-yl)benzamide] | inhibition at 3 µM [1]: 44%
– | CC(C)CN1CCC2(CC1)CC2NC(=O)c1ccc(Cl)c(Cl)c1 (stereo not drawn) [Example 6, 3,4-Dichloro-N-(6-isobutyl-6-azaspiro[2.5]octan-1-yl)benzamide] | inhibition at 3 µM [1]: 29.1%
0.12 µM | CC(C)(C)CCN1CCC2(CC1)CC2NC(=O)c1ccc(Cl)c(Cl)c1 (stereo not drawn) [Example 7, 3,4-Dichloro-N-(6-(3,3-dimethylbutyl)-6-azaspiro[2.5]octan-1-yl)benzamide] | –
0.12 µM | O=C(NC1CC12CCN(CCc1ccccc1)CC2)c1ccc(Cl)c(Cl)c1 (stereo not drawn) [Example 8, 3,4-Dichloro-N-(6-phenethyl-6-azaspiro[2.5]octan-1-yl)benzamide] | –
0.08 µM | CC(C)(C)NC(=O)CN1CCC2(CC1)CC2NC(=O)c1ccc(Cl)c(Cl)c1 (stereo not drawn) [Example 9, N-(6-(2-(tert-Butylamino)-2-oxoethyl)-6-azaspiro[2.5]octan-1-yl)-3,4-dichlorobenzamide] | –
0.8 µM | O=C(NC1CC12CCN(Cc1ccccc1)CC2)c1ccc(Cl)c(Cl)c1 (stereo not drawn) [Example 10, N-(6-Benzyl-6-azaspiro[2.5]octan-1-yl)-3,4-dichlorobenzamide] | –
